Laboratory results published in patent US10292998B1, “Compositions and methods for prevention and treatment of eye infections” (priority 2018, dated 2019).

What was measured:
[1] = cited from earlier work
[2] = test system: viral conjunctivitis; conditions: cited from earlier work
[3] = test system: bacteria on the eye surface; conditions: 0.5%-0.7% PVP-I solution by volume dripped into the eye over 30 seconds, repeated every 90 seconds four times; cited from earlier work
[4] = test system: bacterial and viral infections; assay: Treatment and prevention of eye infections, summary of the experiments; assay type: in vivo, human
Text: Experiments have determined that PVP-I can be mixed with N-acetylcysteine (NAC), preferably in combination with an aqueous solution such as saline or water for improved lubrication, to form a medical eye drop treatment, which has the unexpected result of greatly reducing the bacteria count while simultaneously maintaining the pain at a tolerable level, or in some cases reducing the pain to a non-perceptible level. The active treatment components are preferably mixed by stirring at room temperature (that is, roughly 15-25° C.) and added to an aqueous solution. The PVP-I concentration of the mixture can be as low as 1.25% by volume of the treatment composition without substantially reducing its effectiveness at preventing eye infections of bacterial, viral, and fungal varieties.
Experiments were performed with differing ratios of PVP-I, NAC, and aqueous solution in combination. The PVP-I percentage by volume was varied between 0.5% and 80%, and the NAC percentage by volume was varied between 0.5% and 10%. The combinations were then applied, with one or more drops of the composition, each between 7 and 30 microliters in total volume, applied by syringe to the eye of a patient over a period of between 30 and 180 seconds.
An average eye drop contains 35 microliters, but the space between the human eye and the eyelid can only contain, in an average adult human, approximately 7 microliters of liquid. A human instinctively blinks upon addition of an eye drop to the eye, thereby forcing out most of the eye drop. As a result, only a fraction of a first eye drop will remain in the eye to mix with a second eye drop. […] As a result, the composition described above is not achieved.

[5] = test system: bacteria on the surface of the eyeball; assay: Bacterial count on the surface of the eyeball after eye drops of PVP-I/NAC combinations; assay type: in vivo, human; conditions: NAC alone
Text: The combinations were then applied, with one or more drops of the composition, each between 7 and 30 microliters in total volume, applied by syringe to the eye of a patient over a period of between 30 and 180 seconds. […] In comparison, experiments using NAC alone was ineffective in lowering bacterial count.

Compound	tolerability on the eye ([1]; 1.25% or 2.5% PVP-I concentrations)	pain during application ([1]; 10% PVP-I concentration by volume, surface of the eye)	pain on application to the human eye ([1]; PVP-I especially at concentrations greater than 2.5% by volume)	treating pre-existing infections, especially viral infections such as viral conjunctivitis ([2]; PVP-I without NAC)	effect on viral conjunctivitis infections ([2]; solution of 1.25% PVP-I by volume without NAC, previous study)	reduction of bacteria on the eye surface [3] [%]	discomfort ([4]; summary of experiments)	treating and preventing bacterial infections ([4]; summary of experiments)	treating viral infections ([4]; summary of experiments)	treating or preventing infections ([4]; NAC without PVP-I)	lowering bacterial count [5]
Povidone-iodine [PVP-I]	tolerable but still highly irritating	intolerable	extreme immediate pain and a continuing burning sensation	largely ineffective	no significant effect	99.9	highly uncomfortable	effective	ineffective		
CC(=O)N[C@@H](CS)C(=O)O [NAC, N-acetylcysteine]										ineffective	ineffective
